| SMILES | melting point |
| --- | --- |
| COCCNC(=O)c1ccc(C)c(-n2c(C)cc(OCc3ccccc3CNC(=O)Nc3cc(C(C)(C)C)nn3-c3ccc(O)c(Cl)c3)c(Cl)c2=O)c1 [Example 155, 3-[4-(2-{3-[5-tert-butyl-2-(3-chloro-4-hydroxy-phenyl)-2H-pyrazol-3-yl]-ureidomethyl}-benzyloxy)-3-chloro-6-methyl-2-oxo-2H-pyridin-1-yl]-N-(2-methoxy-ethyl)-4-methyl-benzamide] | 179 to 180 °C |
| Cc1ccc(C(=O)NCC(O)CO)cc1-n1c(C)cc(OCc2ccccc2CNC(=O)Nc2cc(C(C)(C)C)nn2-c2ccc(O)c(Cl)c2)c(Cl)c1=O (centres unmarked) [Example 157, 3-[4-(2-{3-[5-tert-butyl-2-(3-chloro-4-hydroxy-phenyl)-2H-pyrazol-3-yl]-ureidomethyl}-benzyloxy)-3-chloro-6-methyl-2-oxo-2H-pyridin-1-yl]-N-(2,3-dihydroxy-propyl)-4-methyl-benzamide] | 173 to 175 °C |
| Cc1ccc(C(=O)NCCN(C)C)cc1-n1c(C)cc(OCc2ccccc2CNC(=O)Nc2cc(C(C)(C)C)nn2-c2ccc(O)c(Cl)c2)c(Cl)c1=O [Example 158, 3-[4-(2-{3-[5-tert-butyl-2-(3-chloro-4-hydroxy-phenyl)-2H-pyrazol-3-yl]-ureidomethyl}-benzyloxy)-3-chloro-6-methyl-2-oxo-2H-pyridin-1-yl]-N-(2-dimethylamino-ethyl)-4-methyl-benzamide] | 181 to 182 °C |
| Cc1ccc(C(=O)NCC(N)=O)cc1-n1c(C)cc(OCc2ccccc2CNC(=O)Nc2cc(C(C)(C)C)nn2-c2ccc(O)c(Cl)c2)c(Cl)c1=O [Example 160, 3-[4-(2-{3-[5-tert-butyl-2-(3-chloro-4-hydroxy-phenyl)-2H-pyrazol-3-yl]-ureidomethyl}-benzyloxy)-3-chloro-6-methyl-2-oxo-2H-pyridin-1-yl]-N-carbamoylmethyl-4-methyl-benzamide] | 228 to 230 °C |
| CNC(=O)c1ccc(C)c(-n2c(C)cc(OCc3ccccc3CNC(=O)Nc3cc(C(C)(C)C)nn3-c3ccc(Cl)c(O)c3)c(Cl)c2=O)c1 [Example 161, 3-[4-(2-{3-[5-tert-butyl-2-(4-chloro-3-hydroxy-phenyl)-2H-pyrazol-3-yl]-ureidomethyl}-benzyloxy)-3-chloro-6-methyl-2-oxo-2H-pyridin-1-yl]-4,N-dimethyl-benzamide] | 201 to 203 °C |
| Cc1ccc(C(=O)NCCO)cc1-n1c(C)cc(OCc2ccccc2CNC(=O)Nc2cc(C(C)(C)C)nn2-c2ccc(Cl)c(O)c2)c(Cl)c1=O [Example 162, 3-[4-(2-{3-[5-tert-butyl-2-(4-chloro-3-hydroxy-phenyl)-2H-pyrazol-3-yl]-ureidomethyl}-benzyloxy)-3-chloro-6-methyl-2-oxo-2H-pyridin-1-yl]-N-(2-hydroxy-ethyl)-4-methyl-benzamide] | 196 to 197 °C |
| COCCNC(=O)c1ccc(C)c(-n2c(C)cc(OCc3ccccc3CNC(=O)Nc3cc(C(C)(C)C)nn3-c3ccc(Cl)c(O)c3)c(Cl)c2=O)c1 [Example 163, 3-[4-(2-{3-[5-tert-butyl-2-(4-chloro-3-hydroxy-phenyl)-2H-pyrazol-3-yl]-ureidomethyl}-benzyloxy)-3-chloro-6-methyl-2-oxo-2H-pyridin-1-yl]-N-(2-methoxy-ethyl)-4-methyl-benzamide] | 182 to 183 °C |
| COCCNC(=O)c1ccc(C)c(-n2c(C)cc(OCc3ccc(F)cc3CNC(=O)Nc3cc(C(C)(C)C)nn3-c3ccc(Cl)c(O)c3)c(Cl)c2=O)c1 [Example 164, 3-[4-(2-{3-[5-tert-butyl-2-(4-chloro-3-hydroxy-phenyl)-2H-pyrazol-3-yl]-ureidomethyl}-4-fluoro-benzyloxy)-3-chloro-6-methyl-2-oxo-2H-pyridin-1-yl]-N-(2-methoxy-ethyl)-4-methyl-benzamide] | 186 to 187 °C |
